Where a name gives a salt, the structure may show the parent alone.
Biological target: T1, AR protein in VCaP cells (Homo sapiens, UniProt P10275)
T1 construct: endogenous in cells; host or cells: VCaP cells
T1 sequence (P10275 1-920): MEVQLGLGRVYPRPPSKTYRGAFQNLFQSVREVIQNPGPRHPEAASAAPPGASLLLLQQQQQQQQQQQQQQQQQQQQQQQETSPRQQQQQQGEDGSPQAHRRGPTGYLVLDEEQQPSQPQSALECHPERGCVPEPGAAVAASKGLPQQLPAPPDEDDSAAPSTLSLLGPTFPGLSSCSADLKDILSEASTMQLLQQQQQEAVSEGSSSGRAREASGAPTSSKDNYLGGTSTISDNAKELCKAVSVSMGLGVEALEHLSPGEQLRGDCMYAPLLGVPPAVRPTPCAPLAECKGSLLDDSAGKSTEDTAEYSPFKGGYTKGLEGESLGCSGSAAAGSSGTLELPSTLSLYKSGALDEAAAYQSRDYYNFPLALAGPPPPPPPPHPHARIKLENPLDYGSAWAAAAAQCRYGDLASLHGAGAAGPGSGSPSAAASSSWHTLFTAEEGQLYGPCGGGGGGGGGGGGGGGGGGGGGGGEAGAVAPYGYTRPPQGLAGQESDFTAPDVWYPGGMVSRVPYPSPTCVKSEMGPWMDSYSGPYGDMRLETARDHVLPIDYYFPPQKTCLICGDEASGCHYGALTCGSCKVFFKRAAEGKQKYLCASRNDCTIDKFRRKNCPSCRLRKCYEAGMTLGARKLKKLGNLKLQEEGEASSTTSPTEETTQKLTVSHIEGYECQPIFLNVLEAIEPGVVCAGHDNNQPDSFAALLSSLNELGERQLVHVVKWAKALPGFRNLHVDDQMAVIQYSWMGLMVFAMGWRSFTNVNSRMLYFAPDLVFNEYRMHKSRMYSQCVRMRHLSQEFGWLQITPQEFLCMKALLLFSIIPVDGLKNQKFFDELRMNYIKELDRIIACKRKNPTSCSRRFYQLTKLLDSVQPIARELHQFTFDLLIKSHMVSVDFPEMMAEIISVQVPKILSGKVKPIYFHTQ
Assay: VCAP AR Degradation Assay
Type: cell-based
Details: 24 h, AR ELISA; for DC50: concentration at 50% of DMSO control (50% AR degradation); for Y: lowest measured AR level normalized to DMSO control
Description: VCAP AR Degradation Assay. Test compounds were pre-dispensed into a Corning CellBind 96-well clear bottom plate (Cat #3300) using an acoustic dispenser to make a 10-point concentration series at 1:3 dilution for each compound. The final top concentration of each compound was 5 μM. DMSO at a final concentration of 0.1% was used as a control. VCaP cells cultured in DMEM with 8% fetal bovine serum (FBS) were seeded at 50K cells per well in a 200 μL volume into the compound plate and incubated at 37° C. in a CO2 incubator for 24 h. The medium was carefully removed from the cells and the plate was placed on ice. One hundred μL of ice-cold 1× cell lysis buffer from Cell Signaling Technologies (Cat #9803) was added to each well of the cells and the plate was incubated at 4° C. on a shaker for 1 h. Fifteen μL of cell lysate was used for AR ELISA detection using a PathScan Total Sandwich AR ELISA kit (Cell Signaling Technology, Cat #12580). AR levels in compound-treated wells were normalized to that of DMSO control and expressed as percent of control (PoC) (y). A Four Parameter Logistic Model (Sigmoidal Dose-Response Model) was used to determine the compound's DC50, and EC50, using the following equation: y=(A+((B−A)/(1+((C/x)^D)))) • A=YMin (lowest AR level normalized to DMSO control in response to compound treatment, as determined by curve fit) • B=YMax (maximum AR level as determined by curve fit) • C=EC50 • D=Hill Slope • x=compound concentration • EC50=the concentration of compound when y=(YMax−YMin)/2 • DC50=the concentration of the compound when y=50% of DMSO control (50% AR degradation) • y=AR protein level normalized to DMSO control
The lowest measured AR level normalized to DMSO control in response to compound treatment, termed Y value, was used to characterize the compound-mediated AR degradation efficiency.

Structure (SMILES) | DC50 [nM] | Y
C[C@@H]1CN(CCC[C@H]2CC[C@H](N3C(=S)N(c4cnc(C#N)c(Cl)c4)C(=O)C3(C)C)CC2)C[C@H](C)N1CC(=O)Nc1cccc(NC2CCC(=O)NC2=O)c1 (stereo partly drawn) [Cmpd 13, 2-((2R,6S)-4-(3-(trans-4-(3-(5-Chloro-6-cyanopyridin-3-yl)-5,5-dimethyl-4-oxo-2-thioxoimidazolidin-1-yl)cyclohexyl)propyl)-2,6-dimethylpiperazin-1-yl)-N-(3-((2,6-dioxopiperidin-3-yl)amino)phenyl)acetamide hydrochloride] | 5 to 10 | *** (25%<Y<50%)
C[C@@H]1C[C@H](OCC[C@H]2CC[C@H](N3C(=S)N(c4ccc(C#N)c(C(F)(F)F)c4)C(=O)C3(C)C)CC2)C[C@H](C)N1CC(=O)Nc1cccc(NC2CCC(=O)NC2=O)c1 (stereo partly drawn) [Cmpd 36, 2-((2R,4r,6S)-4-(2-((trans)-4-(3-(4-Cyano-3-(trifluoromethyl)phenyl)-5,5-dimethyl-4-oxo-2-thioxoimidazolidin-1-yl)cyclohexyl)ethoxy)-2,6-dimethylpiperidin-1-yl)-N-(3-((2,6-dioxopiperidin-3-yl)amino)phenyl)acetamide] | 10 to 100 | ** (15%<Y≤20%)
C[C@@H]1C[C@H](CCO[C@H]2CC[C@H](N3C(=S)N(c4cnc(C#N)c(C(F)(F)F)c4)C(=O)C3(C)C)CC2)C[C@H](C)N1CC(=O)Nc1cccc(NC2CCC(=O)NC2=O)c1 (stereo partly drawn) [Cmpd 21, 2-((2S,4r,6R)-4-(2-((trans-4-(3-(6-Cyano-5-(trifluoromethyl)pyridin-3-yl)-5,5-dimethyl-4-oxo-2-thioxoimidazolidin-1-yl)cyclohexyl)oxy)ethyl)-2,6-dimethylpiperidin-1-yl)-N-(3-((2,6-dioxopiperidin-3-yl)amino)phenyl)acetamide] | ≤ 5 | * (0<Y≤15%)
CC1(C)C(=O)N(c2ccc(C#N)c(C(F)(F)F)c2)C(=S)N1[C@H]1CC[C@H](OCCN2CCN(CC(=O)Nc3cccc(NC4CCC(=O)NC4=O)c3)[C@@H](C(F)(F)F)C2)CC1 (stereo partly drawn) [Cmpd 19, 2-((R)-4-(2-((trans-4-(3-(4-Cyano-3-(trifluoromethyl)phenyl)-5,5-dimethyl-4-oxo-2-thioxoimidazolidin-1-yl)cyclohexyl)oxy)ethyl)-2-(trifluoromethyl)piperazin-1-yl)-N-(3-((2,6-dioxopiperidin-3-yl)amino)phenyl)acetamide hydrochloride] | 5 to 10 | * (0<Y≤15%)
C[C@@H]1CN(CCO[C@H]2CC[C@H](N3C(=S)N(c4ccc(C#N)c(C(F)(F)F)c4)C(=O)C3(C)C)CC2)C[C@H](C)N1CC(=O)Nc1cccc(NC2CCC(=O)NC2=O)c1 (stereo partly drawn) [Cmpd 1, 2-((2R,6S)-4-(2-((trans-4-(3-(4-Cyano-3-(trifluoromethyl)phenyl)-5,5-dimethyl-4-oxo-2-thioxoimidazolidin-1-yl)cyclohexyl)oxy)ethyl)-2,6-dimethylpiperazin-1-yl)-N-(3-((2,6-dioxopiperidin-3-yl)amino)phenyl)acetamide] | 5 to 10 | *** (25%<Y<50%)
C[C@@H]1CN(CCC[C@H]2CC[C@H](N3C(=S)N(c4cnc(C#N)c(C(F)(F)F)c4)C(=O)C3(C)C)CC2)C[C@H](C)N1CC(=O)Nc1cccc(NC2CCC(=O)NC2=O)c1 (stereo partly drawn) [Cmpd 11, 2-((2R,6S)-4-(3-(trans-4-(3-(6-Cyano-5-(trifluoromethyl)pyridin-3-yl)-5,5-dimethyl-4-oxo-2-thioxoimidazolidin-1-yl)cyclohexyl)propyl)-2,6-dimethylpiperazin-1-yl)-N-(3-((2,6-dioxopiperidin-3-yl)amino)phenyl)acetamide hydrochloride] | ≤ 5 | * (0<Y≤15%)
CC1(C)C(=O)N(c2cnc(C#N)c(C(F)(F)F)c2)C(=S)N1[C@H]1CC[C@H](CCCN2CCN(CC(=O)Nc3cccc(NC4CCC(=O)NC4=O)c3)[C@@H](C(F)(F)F)C2)CC1 (stereo partly drawn) [Cmpd 25, 2-((R)-4-(3-((trans)-4-(3-(6-Cyano-5-(trifluoromethyl)pyridin-3-yl)-5,5-dimethyl-4-oxo-2-thioxoimidazolidin-1-yl)cyclohexyl)propyl)-2-(trifluoromethyl)piperazin-1-yl)-N-(3-((2,6-dioxopiperidin-3-yl)amino)phenyl)acetamide] | 5 to 10 | * (0<Y≤15%)
CC1(C)C(=O)N(c2ccc(C#N)c(C(F)(F)F)c2)C(=S)N1[C@H]1CC[C@H](CCCN2CCN(CC(=O)Nc3cccc(NC4CCC(=O)NC4=O)c3)[C@@H](C(F)(F)F)C2)CC1 (stereo partly drawn) [Cmpd 29, 2-((R)-4-(3-((trans)-4-(3-(4-Cyano-3-(trifluoromethyl)phenyl)-5,5-dimethyl-4-oxo-2-thioxoimidazolidin-1-yl)cyclohexyl)propyl)-2-(trifluoromethyl)piperazin-1-yl)-N-(3-((2,6-dioxopiperidin-3-yl)amino)phenyl)acetamide] | 5 to 10 | * (0<Y≤15%)
CC1(C)C(=O)N(c2cnc(C#N)c(C(F)(F)F)c2)C(=S)N1[C@H]1CC[C@H](OCCCN2CCN(CC(=O)Nc3cccc(NC4CCC(=O)NC4=O)c3)[C@@H](C(F)(F)F)C2)CC1 (stereo partly drawn) [Cmpd 28, 2-((R)-4-(3-(((trans)-4-(3-(6-cyano-5-(trifluoromethyl)pyridin-3-yl)-5,5-dimethyl-4-oxo-2-thioxoimidazolidin-1-yl)cyclohexyl)oxy)propyl)-2-(trifluoromethyl)piperazin-1-yl)-N-(3-((2,6-dioxopiperidin-3-yl)amino)phenyl)acetamide] | ≤ 5 | * (0<Y≤15%)
C[C@@H]1CN(CCO[C@H]2CC[C@H](N3C(=S)N(c4cnc(C#N)c(Cl)c4)C(=O)C3(C)C)CC2)C[C@H](C)N1CC(=O)Nc1cccc(NC2CCC(=O)NC2=O)c1 (some centres unmarked) [Cmpd 8, hydrochloride] | 5 to 10 | *** (25%<Y<50%)
C[C@@H]1CN(CCCC[C@H]2CC[C@H](N3C(=S)N(c4ccc(C#N)c(C(F)(F)F)c4)C(=O)C3(C)C)CC2)C[C@H](C)N1CC(=O)Nc1cccc(NC2CCC(=O)NC2=O)c1 (stereo partly drawn) [Cmpd 17, 2-((2R,6S)-4-(4-(trans-4-(3-(4-Cyano-3-(trifluoromethyl)phenyl)-5,5-dimethyl-4-oxo-2-thioxoimidazolidin-1-yl)cyclohexyl)butyl)-2,6-dimethylpiperazin-1-yl)-N-(3-((2,6-dioxopiperidin-3-yl)amino)phenyl)acetamide hydrochloride] | 10 to 100 | *** (25%<Y<50%)
C[C@@H]1C[C@H](CCO[C@H]2CC[C@H](N3C(=S)N(c4ccc(C#N)c(C(F)(F)F)c4)C(=O)C3(C)C)CC2)C[C@H](C)N1CC(=O)Nc1cccc(NC2CCC(=O)NC2=O)c1 (stereo partly drawn) [Cmpd 16, 2-((2R,4r,6S)-4-(2-((trans-4-(3-(4-Cyano-3-(trifluoromethyl)phenyl)-5,5-dimethyl-4-oxo-2-thioxoimidazolidin-1-yl)cyclohexyl)oxy)ethyl)-2,6-dimethylpiperidin-1-yl)-N-(3-((2,6-dioxopiperidin-3-yl)amino)phenyl)acetamide hydrochloride] | 5 to 10 | * (0<Y≤15%)
CC1(C)C(=O)N(c2cnc(C#N)c(C(F)(F)F)c2)C(=S)N1[C@H]1CC[C@H](OCCN2CCN(CC(=O)Nc3cccc(N[C@H]4CCC(=O)NC4=O)c3)[C@@H](C(F)(F)F)C2)CC1 [Cmpd 41, 2-((R)-4-(2-(((trans)-4-(3-(6-Cyano-5-(trifluoromethyl)pyridin-3-yl)-5,5-dimethyl-4-oxo-2-thioxoimidazolidin-1-yl)cyclohexyl)oxy)ethyl)-2-(trifluoromethyl)piperazin-1-yl)-N-(3-(((S)-2,6-dioxopiperidin-3-yl)amino)phenyl)acetamide hydrochloride] | ≤ 5 | * (0<Y≤15%)

Source: patent publication US12103920B2, “Cereblon binding compounds, compositions thereof, and methods of treatment therewith” (Celgene Corporation, priority 2020, dated 2024)
